Source: US20250368651A1 (priority 2022, published 2025)

Key:
DNA S6 […] = test: FP binding assay, 18-nt DNA S6
Description: (§1) All synthetic DNA and RNA oligomers were purchased from Integrated DNA Technologies and reconstituted in nuclease-free water (Invitrogen #AM9932) at 1 mM. The concentration of the oligonucleotides at ˜0.1 mM was calibrated with the A260 value measured by a NanoDrop ND-1000 (Thermo, Waltham, MA, USA) and the predicted extinction coefficient (http://www.oligoevaluator.com) using Lamber-Beer's Law. The risdiplam analogues (1 mM in DMSO) were diluted in 2× assay buffer (40 mM HEPES, 200 mM NaCl for RNA; 40 mM HEPES, 200 mM NaCl, 1 mM MgCl2 for DNA) to make a 1 μM 2× working solution.
(§2) A 1:2 dilution series (8 points) of each oligonucleotide was prepared in 20-30 μL water to desired concentrations (i.e., 1-128 μM). […] For fluorescence polarization measurement, 20 μL of the above 1× working solution was transferred into a 384-well, black, F-bottom microplates (Greiner Bio-One) in duplicates or triplicates. The plate was equilibrated at room temperature for 5 min before being read using a microplate reader (SYNERGY H1, BioTek; Excitation/Emission=360/460 nm) at 25° C. […] The mixture was then transferred into a microplate (20 μL each well) in duplicates for fluorescence polarization readout. The experimental data were analyzed using Prism 8 software (Graphpad Software, San Diego, CA, USA).

DNA S23 […] = test: FP binding assay, 18-nt DNA S23
Description: as §1, §2

[1] = molecular target: DNA Seq13 (UGAAGAAAGGU as deoxyribonucleotides); test: FP binding assay, DNA Seq13; settings: Seq 13; 0.5 μM SMN-C2
Description: as §1, §2

[2] = molecular target: DNA Seq6 (UGAAGGAAGGU as deoxyribonucleotides); test: FP binding assay, DNA Seq6
Description: as §1
(§3) A 1:2 dilution series (8 points) of each oligonucleotide was prepared in 20-30 μL water to desired concentrations (i.e., 1-128 μM). 20-30 μL 2× working solution containing the 2× assay buffer and the small-molecule ligand was added to each oligonucleotide sample in 1:1 (v/v) and mixed by pipetting for 4 times. For fluorescence polarization measurement, 20 μL of the above 1× working solution was transferred into a 384-well, black, F-bottom microplates (Greiner Bio-One) in duplicates or triplicates. The plate was equilibrated at room temperature for 5 min before being read using a microplate reader (SYNERGY H1, BioTek; Excitation/Emission=360/460 nm) at 25° C. For compound SMN-C5, a competitive binding assay was employed to measure an apparent Kd. SMN-C5 was 1:2 serial diluted for 10 concentration points starting at 750 μM in DMSO. A mixture of SMN-C2 (0.5 μM) and DNA Seq6 (25 μM) in 1× assay buffer was prepared and incubated at room temperature for 10 minutes. 3 μL of SMN-C5 solution at each concentration was added to a 42 μL SMN-C2/DNA Seq6 mixture and incubated at room temperature for 10 minutes. The mixture was then transferred into a microplate (20 μL each well) in duplicates for fluorescence polarization readout. The experimental data were analyzed using Prism 8 software (Graphpad Software, San Diego, CA, USA).

DNA Seq11 TGGAGGAAGGT = test: FP binding assay, DNA Seq11; settings: Seq 11 TGGAGGAAGGT; 0.5 μM SMN-C2
Description: as §1, §2

RNA Seq4 […] = test: FP binding assay, RNA Seq4
Description: as §1, §3

DNA Seq6 = test: Isothermal titration calorimetry (ITC), DNA Seq6; type: binding; settings: SMN-C2 250 μM into DNA Seq6 25 μM; MES buffer, 5% DMSO, 100 mM NaCl
Description: Excess amount of SMN-C2 was eluted at retention volume ˜21 mL. The figures are the representation of three independent experiments.
Isothermal calorimetric titrations were carried out on a Malvern Analytical MicroCal PEAQ-ITC at 25° C. The DNA (see above for the calibration procedure) and the SMN-C2 water solutions containing the desired amount of the materials were freeze-dried overnight (Labconco FreeZone 4.5 Liter Benchtop Freeze Dry System) and then re-suspended in appropriate volume of buffer containing 5% DMSO, 100 mM NaCl and 30 mM MES buffer at pH 6.0 (e.g., 350 μL for DNA Seq6, 80 μL for SMN-C2). […] The analysis was performed using the instrument's MicroCal PEAQ-ITC Analysis Software (Malvern Analytical). The ITC data was fit using the One Set of Sites mode to calculate the dissociate constant (Kd), binding stoichiometry, and the changes in enthalpy and Gibbs free energy. In differential power (DP) trace, the baseline was subtracted for better visualization, which has no impact on calculations.

DNA S16 […] = test: FP binding assay, 18-nt DNA S16
Description: as §1, §2

DNA S1 […] = test: FP binding assay, 18-nt DNA S1; settings: range = 95% CI
Description: as §1, §2

DNA S22 […] = test: FP binding assay, 18-nt DNA S22
Description: as §1, §2

[3] = test system: SMN2 exon 7 minigenes with single-point mutations M1 and M2; test: SMN2 splicing assay with minigenes mutated in the GA-rich sequence (M1, M2) in 293T cells; type: cell-based, human
DNA S27 d([…]) = test: FP binding assay, 10-nt DNA S27
Description: as §1, §2

DNA S8 […] = test: FP binding assay, 18-nt DNA S8
Description: as §1, §2

RNA Seq10 UAAAGGAAGGU = test: FP binding assay, RNA Seq10; settings: Seq 10 UAAAGGAAGGU; 0.5 μM SMN-C2
Description: as §1, §2

DNA S9 […] = test: FP binding assay, 18-nt DNA S9
Description: as §1, §2

in vitro = settings: human
DNA Seq16 TGAAGGAAAGT = test: FP binding assay, DNA Seq16; settings: Seq 16 TGAAGGAAAGT; 0.5 μM SMN-C2
Description: as §1, §2

With CCN1CCN(c2ccc3cc(-c4cn5cc(C)nc(C)c5n4)c(=O)oc3c2)C[C@@H]1C [SMN-C2, (S)-3-(6,8-dimethylimidazo[1,2-a]pyrazin-2-yl)-7-(4-ethyl-3-methylpiperazin-1-yl)-2H-chromen-2-one] the Kd (DNA S6 […]) was 33.3 ± 2.3 µM, the Kd (DNA S23 […]) was over 50 µM and the Kd [1] was over 100 µM. For the same compound, the Kd ([2]; Seq 6, 0.5 μM SMN-C2, range = 95% CI, read-out: DNA Kd) was 3.1 ± 0.7 µM, the “decrease in binding affinity by any single-point mutation of the core sequence” value ([2]; Seq10-17 vs Seq6) was at least 5 fold and the Kd (DNA Seq11 TGGAGGAAGGT) was 57.3 ± 20 µM. It also gave a Kd (RNA Seq4 […]) of 21.7 ± 4.3 µM, a Kd (DNA Seq6) of 4.8 µM and a Kd (DNA S16 […]) of 48.9 ± 12.2 µM. For the same compound, the Kd (DNA S1 […]) was 15.3 ± 0.6 µM, the Kd (DNA S22 […]) was 44.7 ± 7.2 µM and the “exon 7 inclusion” value ([3]; 1 μM, 293T cells transfected with mutated minigenes M1, M2) was over 90%. The “EC50 relative to minigene with wildtype exon 7 sequence, fold higher” value ([3]; mutated minigenes M1, M2 in 293T cells) was 2-3 fold, the Kd (DNA S27 d([…])) was 11.6 ± 1.7 µM and the Kd (DNA S8 […]) was 12.4 ± 0.4 µM. It also gave a Kd (RNA Seq10 UAAAGGAAGGU) of over 100 µM, a Kd (DNA S9 […]) of 56.2 ± 13.9 µM and a CC50 (in vitro) of over 30 µM. For the same compound, the Kd (DNA Seq16 TGAAGGAAAGT) was 27.4 ± 6 µM.
